From patent US7550457B2, “Pharmaceutically effective compounds” (CytRx Corporation, priority 2002, dated 2009)

Experiments:
[1] = tested on: thoracic aorta of SH rats; assay: Vaso-relaxing effect on the thoracic aorta of SH rats (in vitro testing after one month treatment); assay type: in vivo, rat; details: aorta rings of SH rats treated for one month (dose per compound as in table), contracted with 10^-6 M methoxamine, unit assumed; for vessel relaxing effect, Ach dose 10^-6 M: acetylcholine 10^-6 M; for vessel relaxing effect, Ach dose 10^-4 M: acetylcholine 10^-4 M; for vessel relaxing effect, Ach dose 10^-5 M: acetylcholine 10^-5 M
Protocol: In the following, we give the results of the test of blood vessel relaxing effect, performed in vitro on rat vessels, and also the morphological results of the thoracic aorta.
(§1) Three-month-old, genetically hypertonic (SH) Wistar Okamoto rats were treated for one month with various test compounds. Thereafter the functional and morphological tests were performed.
The Vaso-relaxing Effect of the Compounds of the Invention on the Thoracic Aorta of SH Rats (In Vitro Testing)
The test was performed by the method known from the literature [Japan J. Pharmacol., 59, 339-347 (1992)]. The SH rats were anesthetized with Nembutal (40 mg/kg, i. p.), then the thoracic aorta was removed and placed in oxygenized (95% O2+5% CO2) Krebs-Henseleit solution. The composition of the solution (mM): NaCl 118, KCI 4, 7, CaCl2 2,52, MgSO4 1,64, NaHCO3 24,88, KH2PO4 1,18, glucose 5,5. The 3-mm-long aorta rings were suspended in a 20 ml organ bath of 37° C. The resting tension was 1 g, which was maintained throughout the equilibration. During the 1 hour equilibration, the medium was changed in every 20 minutes. The vessels were contracted with 10^−6 M methoxamine (approximately 80% of maximal contraction). After reaching the maximal contraction, we tested the vasodilation resulting as the effect of the acetylcholine (Ach) (10^−6−10^−4 M), which informed us about the condition of the endothelium of the vessel wall. The contraction force was measured by an isometric strain gauge (SG-01D, Experimentia Ltd), and was registered on an OH-850 polygraph (Radelkis). At this time again, 5,6-dihydro-5-(1-piperidinyl)-methyl-3-(3-pyridyl)-4H-1,2,4-oxadiazine as described in WO 98/06400 was used as a reference compound.

[2] = tested on: thoracic aorta of SH rats; assay: Morphological testing of the thoracic aortas with electron microscopy; assay type: in vivo, rat; set-up: key: 1: no regeneration was observable; 2: weak; 3: average; 4: good; 5: strong regeneration; details: SH rats treated p. o. for one month (dose per compound as in table), scale of 1 to 5, electron microscopy of thoracic aorta endothelium
Protocol: as §1
Morphological Testing of the Thoracic Aortas with Electron Microscopy
The test was performed according to the procedure known from the literature (Br. J. of Pharmacol., 1995; 115, 415-420). 1 mm^2 pieces of the aorta wall was cut out of the thoracic aorta of the rats, and were then fixed with 2.5% glutaraldehyde at room temperature for 2 hours. This was followed by a post-fixation with 1% osmium tetroxide for 1 hour. Afterwards, the tissue pieces were dehydrated with ethanol, and embedded in Durcupan ACM. The samples were evaluated qualitatively based on the images recorded on a Hitachi 7100 electron microscope.
On the scale, 1 was used to refer to cases where no regeneration was observable, 2 refers to weak, 3 to average, 4 to good, and 5 to strong regeneration.

[3] = tested on: human umbilical vein endothelial cells (HUVEC); assay: Wounding migration assay in endothelial cell culture; assay type: cell-based; details: wounded HUVEC monolayer, 24 hours after wounding, test agent 10^-6 M
Protocol: Wounding Migration Assay in Endothelial Cell Culture
The effect of the compounds of the invention on the wounded monolayers of human umbilical vein endothelial cells (HUVEC) were studied in a cell culture system (in vitro). After reaching confluence, the HUVEC cells were wounded according to the method of Yamamura et al. (J. Surgical Res. 63, 349-354, 1996). The number of migrated cells were registered using computerized image analysis 24 hours after wounding in the absence and presence of the active agents under testing in a concentration of 10^−6 M. The active ingredient described in publication no. WO 98/06400, namely 5,6-dihydro-5-(1-piperidinyl)-methyl-3-(3-pyridyl)-4H-1,2,4-oxadiazine was used as reference compound.

| SMILES | vessel relaxing effect, Ach dose 10^-6 M [1] | vessel relaxing effect, Ach dose 10^-4 M [1] | vessel relaxing effect, Ach dose 10^-5 M [1] | Degree of regeneration [2] | number of migrated cells, cell/mm^2 24 hours [3] |
| --- | --- | --- | --- | --- | --- |
| [O-][n+]1cccc(C2=NOCC(CN3CCCCC3)N2)c1 (single isomer, unassigned; (+)) [Compound no. 9, (+)-5,6-dihydro-5-[(1-piperidinyl)methyl]-3-(1-oxido-3-pyridyl)-4H-1,2,4-oxadiazine] | 87% | – | – | – | – |
| O.O.O=[N+]([O-])c1cccc(C(Cl)=NOCCC[N+]2([O-])CCCCC2)c1 [Compound no. 4, N-[3-(1-oxido-1-piperidinyl)propoxy]-3-nitro-benzimidoyl-chloride dihydrate] | 82.5% | 88.1% | 84.9% | 5 | 45 cell/mm^2 |
| c1cncc(C2=NOCC(CN3CCCCC3)N2)c1 (centres unmarked) [Reference, 5,6-dihydro-5-(1-piperidinyl)-methyl-3-(3-pyridyl)-4H-1,2,4-oxadiazine, reference compound] | 77.4% | 81.7% | 80.2% | – | 30 cell/mm^2 |
| Cl.ClC(=NOCC(Cl)CN1CCCCC1)c1ccccc1 (centres unmarked) [Compound no. 12, N-[2-chloro-3-(1-piperidinyl)propoxy]-3-benzimidoyl-chloride hydrochloride] | 82.3% | 80.4% | 83.5% | 3 | 60 cell/mm^2 |
| O=C1CCCCN1CC1CON=C(c2cccnc2)N1 (single isomer, unassigned) [Compound no. 8, (R) or (S)-5,6-dihydro-5-[(2-oxo-1-piperidinyl)methyl]-3-(3-pyridyl)-4H-1,2,4-oxadiazine] | – | – | 88% | – | – |
| O=C(NOCC(O)CN1CCCCC1)c1ccc[n+]([O-])c1 (centres unmarked) [Compound no. 13, N-[2-hydroxy-3-(1-piperidinyl)propoxy]-pyridin-1-oxide-3-carboxamide] | 88.4% | 95.2% | 90.3% | 4 | 54 cell/mm^2 |
| OC1CCN(CC2CON=C(c3cccnc3)N2)CC1 (centres unmarked) [Compound no. 11, 5,6-dihydro-5-[(4-hydroxy-1-piperidinyl)methyl]-3-(3-pyridyl)-4H-1,2,4-oxadiazine] | 79.7% | 86% | 85.1% | 4 | 51 cell/mm^2 |
